Test results from patent publication US12678471B2 (priority 2022, dated 2026).

System: ACE2-293T cells
Conditions: for Cell viability (%): 10 μM, 24 hours, ACE2-293T cells, vehicle group = 100%, mean ± SD (n = 3); for Cytotoxicity to ACE2-293T cells (result in words): dose of 10 μM

Compound: COc1cc2c3cc1Oc1c(OC)c(OC)cc4c1[C@@H](Cc1ccc(O)c(c1)Oc1ccc(cc1)C[C@@H]3N(C)CC2)N(C)CC4 [Berbamine]
- Cell viability (%): 98.15 ± 3.04%
- Cytotoxicity to ACE2-293T cells (result in words): caused no harms to the ACE2-293T cells

Compound: COc1cc2c3cc1Oc1c(O)c(OC)cc4c1[C@@H](Cc1ccc(O)c(c1)Oc1ccc(cc1)C[C@@H]3N(C)CC2)N(C)CC4 [Obamegine]
- Cell viability (%): 98.19 ± 1.11%
- Cytotoxicity to ACE2-293T cells (result in words): caused no harms to the ACE2-293T cells

Compound: Bersavine
- Cell viability (%): 95.42 ± 2.33%
- Cytotoxicity to ACE2-293T cells (result in words): caused no harms to the ACE2-293T cells
